One series is described as follows: in vitro. The following applies: human.
Another series concerns PfPI3K. The following applies: read-out: IC50 PfPI3K; in vitro; cited from earlier work.
In series [1] the test system is PfNF54 stage IV/V gametocytes. Nature of the series: Late-stage gametocytocidal luciferase reporter assay. The class given is cell-based. The following applies: Plasmodium falciparum, 48 h, read-out: IC50, viability of late-stage gametocytes.
Series [2] deals with male gamete formation from stage V gametocytes. Description: Male gamete exflagellation inhibition assay. The format is cell-based. As to conditions: Plasmodium falciparum, 48 h, read-out: inhibition of male gamete formation (EIA).
Another series has as its system Pf3D7. Nature of the series: P. falciparum NSG mouse model of infection, 4-day test. The class given is in vivo, Plasmodium falciparum. The following applies: day 7, single daily oral dose for four days, NSG mice.
Series [3] deals with T1, protein kinase 2 (PK2; PF3D7_1238900) (Plasmodium falciparum, UniProt Q8I534).
T1 sequence (Q8I534 1-509): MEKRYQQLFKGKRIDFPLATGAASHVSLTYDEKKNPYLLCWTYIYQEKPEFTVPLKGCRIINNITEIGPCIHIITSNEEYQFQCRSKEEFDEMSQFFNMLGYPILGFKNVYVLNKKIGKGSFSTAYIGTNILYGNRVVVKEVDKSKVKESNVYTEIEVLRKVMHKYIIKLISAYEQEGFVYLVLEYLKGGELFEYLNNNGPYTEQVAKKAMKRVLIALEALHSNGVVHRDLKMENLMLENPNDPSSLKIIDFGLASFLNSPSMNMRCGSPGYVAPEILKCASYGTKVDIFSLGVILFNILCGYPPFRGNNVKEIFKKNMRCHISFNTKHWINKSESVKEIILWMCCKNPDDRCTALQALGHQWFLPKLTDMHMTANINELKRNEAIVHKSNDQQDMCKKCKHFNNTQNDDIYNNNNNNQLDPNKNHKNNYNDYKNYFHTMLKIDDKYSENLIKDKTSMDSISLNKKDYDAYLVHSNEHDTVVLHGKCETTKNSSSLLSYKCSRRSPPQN
Description: Kinobead chemoproteomic competition binding, Pf3D7 ABS extract. The following applies: read-out: Kd app for PK2; Kinobeads, P. falciparum ABS extract.

The target in another series is PI4Kβ (PF3D7_0509800) (Plasmodium falciparum, UniProt Q8I406). The description is as above. The following applies: read-out: Kd app for PI4Kβ; Kinobeads, P. falciparum ABS extract.
PI4Kβ (PF3D7_0509800), sequence (Q8I406 1-1559): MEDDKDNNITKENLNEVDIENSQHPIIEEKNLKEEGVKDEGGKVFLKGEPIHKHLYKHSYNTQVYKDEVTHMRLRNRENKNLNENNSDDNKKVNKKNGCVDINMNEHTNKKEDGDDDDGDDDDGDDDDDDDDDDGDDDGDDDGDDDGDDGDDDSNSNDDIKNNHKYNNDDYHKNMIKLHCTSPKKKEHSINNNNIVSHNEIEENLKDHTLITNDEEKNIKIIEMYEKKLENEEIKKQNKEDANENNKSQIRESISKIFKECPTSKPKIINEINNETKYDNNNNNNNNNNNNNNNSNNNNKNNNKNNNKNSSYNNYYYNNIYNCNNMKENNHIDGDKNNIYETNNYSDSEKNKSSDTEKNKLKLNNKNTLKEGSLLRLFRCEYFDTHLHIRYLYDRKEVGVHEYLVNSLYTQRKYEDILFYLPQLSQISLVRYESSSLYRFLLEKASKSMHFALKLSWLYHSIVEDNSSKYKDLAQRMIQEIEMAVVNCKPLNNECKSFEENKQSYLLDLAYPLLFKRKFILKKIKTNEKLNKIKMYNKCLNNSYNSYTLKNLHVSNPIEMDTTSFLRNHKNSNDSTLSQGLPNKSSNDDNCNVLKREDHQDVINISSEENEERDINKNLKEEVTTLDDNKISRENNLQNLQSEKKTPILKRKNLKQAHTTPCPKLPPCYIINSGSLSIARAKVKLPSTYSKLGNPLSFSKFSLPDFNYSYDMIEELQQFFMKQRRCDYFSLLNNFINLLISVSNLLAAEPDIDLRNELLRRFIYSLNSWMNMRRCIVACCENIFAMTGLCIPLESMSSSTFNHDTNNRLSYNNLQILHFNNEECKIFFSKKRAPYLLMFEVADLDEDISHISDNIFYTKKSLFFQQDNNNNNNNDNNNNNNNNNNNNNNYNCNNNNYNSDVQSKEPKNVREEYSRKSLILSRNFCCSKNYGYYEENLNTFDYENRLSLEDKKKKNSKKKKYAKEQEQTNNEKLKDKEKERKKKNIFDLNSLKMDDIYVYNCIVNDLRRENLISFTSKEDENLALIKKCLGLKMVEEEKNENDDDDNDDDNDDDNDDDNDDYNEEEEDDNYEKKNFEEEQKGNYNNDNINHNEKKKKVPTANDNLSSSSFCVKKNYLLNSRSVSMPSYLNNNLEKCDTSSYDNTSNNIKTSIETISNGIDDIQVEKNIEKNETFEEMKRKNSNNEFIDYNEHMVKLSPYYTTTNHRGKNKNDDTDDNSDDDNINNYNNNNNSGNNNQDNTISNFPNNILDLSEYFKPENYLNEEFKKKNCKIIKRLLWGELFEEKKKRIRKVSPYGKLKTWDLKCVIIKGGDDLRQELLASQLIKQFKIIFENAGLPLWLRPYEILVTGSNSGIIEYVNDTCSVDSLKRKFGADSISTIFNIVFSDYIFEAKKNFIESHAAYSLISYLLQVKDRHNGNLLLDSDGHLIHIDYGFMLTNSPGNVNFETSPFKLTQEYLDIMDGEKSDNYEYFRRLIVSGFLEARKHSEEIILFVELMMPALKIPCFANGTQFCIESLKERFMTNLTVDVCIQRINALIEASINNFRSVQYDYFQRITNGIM
The nature of series [4]: Whole-blood pharmacokinetics in NSG mouse efficacy study, LC-MS/MS. The format is in vivo, NSG mice.
Series [5] concerns control cell line expressing an aptamer-regulatable fluorescent protein. Nature of the series: Susceptibility assay with aptamer-regulatable control line. As to conditions: low vs high aTc.
In another series the test system is Pf3D7 trophozoites. Description: Metabolomic perturbation profiling by LC-MS. The format is cell-based, Plasmodium falciparum. The following applies: 10-fold the IC50 for 2.5 hours, vs no-drug control.
The nature of another series: Tolerability. The format is in vivo. As to conditions: 10 mg/kg oral once daily, both animals.
For series [6], the system named is P. berghei ANKA GFP-Luc-SMcon sporozoites. Nature of the series: P. berghei liver stage assay. The class given is cell-based. As to conditions: Plasmodium berghei, HepG2, read-out: IC50, inhibition of parasite invasion of HepG2 liver cells (liver stage).
Another series relates to PfNF54 strain. Description: In vitro ABS activity against PfNF54 strain. The class given is cell-based. As to conditions: Plasmodium falciparum, read-out: in vitro IC50 against PfNF54 strain.
Series [7] concerns the target T2, cdc2-related protein kinase 5 (CRK5; PF3D7_0615500) (Plasmodium falciparum, UniProt C6KSZ6).
T2 sequence (C6KSZ6 1-705): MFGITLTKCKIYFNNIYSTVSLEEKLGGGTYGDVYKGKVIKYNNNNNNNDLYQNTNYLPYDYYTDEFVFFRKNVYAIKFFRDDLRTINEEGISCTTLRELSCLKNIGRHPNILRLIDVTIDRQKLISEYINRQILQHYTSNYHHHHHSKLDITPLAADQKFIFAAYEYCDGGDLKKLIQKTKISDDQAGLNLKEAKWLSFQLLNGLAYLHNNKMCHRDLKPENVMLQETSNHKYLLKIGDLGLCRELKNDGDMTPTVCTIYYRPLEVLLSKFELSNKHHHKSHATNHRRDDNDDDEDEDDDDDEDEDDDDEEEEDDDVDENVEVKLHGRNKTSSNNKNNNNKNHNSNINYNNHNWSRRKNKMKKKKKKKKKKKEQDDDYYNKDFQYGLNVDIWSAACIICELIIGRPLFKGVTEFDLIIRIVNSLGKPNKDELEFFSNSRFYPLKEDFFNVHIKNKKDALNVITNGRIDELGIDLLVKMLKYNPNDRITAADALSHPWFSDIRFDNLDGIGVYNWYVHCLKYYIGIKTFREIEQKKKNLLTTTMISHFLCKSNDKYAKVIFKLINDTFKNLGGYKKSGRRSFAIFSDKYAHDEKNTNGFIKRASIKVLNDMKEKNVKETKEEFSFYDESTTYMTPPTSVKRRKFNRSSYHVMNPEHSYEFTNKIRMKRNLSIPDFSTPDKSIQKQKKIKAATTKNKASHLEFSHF
Nature of the series: Kinobead chemoproteomic competition binding, Pf3D7 ABS extract. The following applies: read-out: Kd app for CRK5; Kinobeads, P. falciparum ABS extract.

For series [8], the system named is PfNF54 stage V gametocytes. Nature of the series: Standard membrane feeding assay. The arrangement: species or system Plasmodium falciparum. As to conditions: 2 μM, stage V gametocytes incubated 48 hours before feeding; mean ±SD.
For series [9], the system named is PI3K (PF3D7_0515300) cKD parasite line. Description: Susceptibility assay with PI3K conditional knockdown line. As to conditions: no aTc vs high aTc.
The target in series [10] is casein kinase 1 (CK1; PF3D7_1136500) (Plasmodium falciparum, UniProt Q8IHZ9). Description: Kinobead chemoproteomic competition binding, Pf3D7 ABS extract.
casein kinase 1 (CK1; PF3D7_1136500), sequence (Q8IHZ9 whole entry): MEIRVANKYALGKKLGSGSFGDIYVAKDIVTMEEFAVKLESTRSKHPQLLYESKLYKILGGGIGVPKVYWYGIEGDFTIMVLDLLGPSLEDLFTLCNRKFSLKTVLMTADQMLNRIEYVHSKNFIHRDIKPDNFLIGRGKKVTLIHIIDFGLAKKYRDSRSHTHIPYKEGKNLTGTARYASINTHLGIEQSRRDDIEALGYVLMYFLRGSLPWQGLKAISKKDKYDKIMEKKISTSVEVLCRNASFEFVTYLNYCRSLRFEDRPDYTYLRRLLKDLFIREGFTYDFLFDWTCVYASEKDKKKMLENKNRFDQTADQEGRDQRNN
In series [11] the test system is PfNF54 stages II/III gametocytes. Description: Early-stage gametocytocidal luciferase reporter assay. As to conditions: Plasmodium falciparum, read-out: inhibition of early-stage gametocytes. The class given is cell-based. (In general: Reporter assays use an easily measured gene product as a stand-in for the process of interest.)
For series [12], the system named is PKG (PF3D7_1436600) cKD parasite line. Description: Susceptibility assay with PKG conditional knockdown line. The following applies: low aTc (2 nM) vs high aTc.
Series [13] addresses PI3K (Vps34; PF3D7_0515300) (Plasmodium falciparum, UniProt Q8I3V5). Description: Lipid-Kinobead chemoproteomic competition binding, Pf3D7 ABS extract. As to conditions: read-out: Kd app for PI3K; Lipid-Kinobeads, N = 1.

Where “and” joins values, the source holds several entries; their conditions need not be identical. Identical values can stand only once.

PI3K (Vps34; PF3D7_0515300), sequence (Q8I3V5 1-2133): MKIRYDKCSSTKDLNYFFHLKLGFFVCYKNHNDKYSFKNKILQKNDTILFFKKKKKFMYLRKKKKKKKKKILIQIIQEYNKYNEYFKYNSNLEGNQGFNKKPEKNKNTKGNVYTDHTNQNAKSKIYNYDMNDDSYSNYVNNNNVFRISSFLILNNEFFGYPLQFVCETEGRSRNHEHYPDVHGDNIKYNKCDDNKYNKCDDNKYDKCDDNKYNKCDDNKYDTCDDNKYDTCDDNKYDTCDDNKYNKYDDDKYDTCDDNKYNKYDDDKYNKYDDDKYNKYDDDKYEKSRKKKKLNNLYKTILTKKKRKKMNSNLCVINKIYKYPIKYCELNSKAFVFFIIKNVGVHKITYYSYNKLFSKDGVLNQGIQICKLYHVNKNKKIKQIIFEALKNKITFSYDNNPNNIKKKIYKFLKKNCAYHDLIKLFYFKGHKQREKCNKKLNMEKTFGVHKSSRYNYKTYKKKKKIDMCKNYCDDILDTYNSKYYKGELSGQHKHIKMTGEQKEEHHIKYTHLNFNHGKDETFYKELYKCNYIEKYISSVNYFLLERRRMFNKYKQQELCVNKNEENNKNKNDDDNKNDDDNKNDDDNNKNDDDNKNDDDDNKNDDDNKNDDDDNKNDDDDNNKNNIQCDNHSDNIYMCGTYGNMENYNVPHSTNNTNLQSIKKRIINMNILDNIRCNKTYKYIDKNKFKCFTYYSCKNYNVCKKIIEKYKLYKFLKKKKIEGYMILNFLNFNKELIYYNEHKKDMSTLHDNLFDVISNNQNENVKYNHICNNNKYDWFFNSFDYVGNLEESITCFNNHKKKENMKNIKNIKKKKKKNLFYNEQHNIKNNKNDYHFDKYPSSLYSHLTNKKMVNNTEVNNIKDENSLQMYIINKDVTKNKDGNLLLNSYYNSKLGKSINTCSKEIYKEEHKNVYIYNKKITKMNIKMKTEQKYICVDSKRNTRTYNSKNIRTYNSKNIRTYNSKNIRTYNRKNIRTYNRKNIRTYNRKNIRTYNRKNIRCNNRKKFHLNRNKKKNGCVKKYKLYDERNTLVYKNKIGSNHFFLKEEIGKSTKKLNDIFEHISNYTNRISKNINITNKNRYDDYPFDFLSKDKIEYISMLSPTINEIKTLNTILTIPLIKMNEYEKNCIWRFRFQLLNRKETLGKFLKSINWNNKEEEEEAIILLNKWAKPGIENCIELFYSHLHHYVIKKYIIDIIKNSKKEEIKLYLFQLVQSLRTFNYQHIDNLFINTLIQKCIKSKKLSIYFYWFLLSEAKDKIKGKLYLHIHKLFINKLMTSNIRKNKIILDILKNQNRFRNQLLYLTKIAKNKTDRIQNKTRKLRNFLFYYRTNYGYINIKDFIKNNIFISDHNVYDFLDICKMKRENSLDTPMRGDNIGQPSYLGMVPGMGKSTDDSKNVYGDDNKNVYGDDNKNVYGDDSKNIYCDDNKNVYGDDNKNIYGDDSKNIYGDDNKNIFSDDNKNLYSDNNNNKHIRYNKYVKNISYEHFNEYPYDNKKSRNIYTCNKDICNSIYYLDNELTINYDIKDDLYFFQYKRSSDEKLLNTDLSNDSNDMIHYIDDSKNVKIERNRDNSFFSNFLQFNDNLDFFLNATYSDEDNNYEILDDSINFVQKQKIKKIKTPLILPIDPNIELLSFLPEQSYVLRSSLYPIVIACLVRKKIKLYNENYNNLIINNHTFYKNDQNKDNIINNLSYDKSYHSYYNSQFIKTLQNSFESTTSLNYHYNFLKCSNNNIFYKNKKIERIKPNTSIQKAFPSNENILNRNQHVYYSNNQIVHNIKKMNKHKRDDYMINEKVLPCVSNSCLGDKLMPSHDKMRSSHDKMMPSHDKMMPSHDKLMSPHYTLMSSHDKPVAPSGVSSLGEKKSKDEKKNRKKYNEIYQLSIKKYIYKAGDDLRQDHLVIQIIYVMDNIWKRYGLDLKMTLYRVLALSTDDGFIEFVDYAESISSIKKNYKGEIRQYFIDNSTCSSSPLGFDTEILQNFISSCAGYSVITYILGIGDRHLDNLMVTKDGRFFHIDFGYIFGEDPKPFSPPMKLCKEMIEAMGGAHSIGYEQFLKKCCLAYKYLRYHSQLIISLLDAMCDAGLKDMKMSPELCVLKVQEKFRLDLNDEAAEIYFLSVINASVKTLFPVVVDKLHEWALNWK

As usually defined, the IC50 is the concentration that gives 50% inhibition. In turn, `COc1ccc(C[C@H](N)C(=O)N[C@H]2[C@@H](O)[C@H](n3cnc4c(N(C)C)ncnc43)O[C@@H]2CO)cc1` [Puromycin] yielded an IC50 in “in vitro” of 588 ± 3 nM.
With `Nc1ccc(-c2ccc3ncc4ccc(=O)n(-c5cccc(C(F)(F)F)c5)c4c3c2)cn1` [Torin-2], the IC50 in the series with PfPI3K is 0.6 nM.
The term inhibition denotes the percentage by which the read-out fell short of the control. With `CC(C)n1nc(-c2ccc3oc(N)nc3c2)c2c(N)ncnc21` [sapanisertib], the IC50 was 538 nM in [1]; 134 nM in series [6]; 58 nM and 0.018 µg/mL in the series on PfNF54 strain. Further, the inhibition at 2 µM in [2] worked out at 89%. Further, the “ED90 (dose reducing parasitemia by 90% vs untreated control)” value in the series on Pf3D7 came out at 0.88 mg/kg. Further, the Kd was less than 1000 nM in [3]; no more than 50 nM on PI4Kβ (PF3D7_0509800); less than 1000 nM in series [7]; less than 1000 nM in series [10]; ≤ 50 nM and 50 nM in series [13]. The “whole-blood exposure level (below lowest limit of quantification)” value in series [4] (0.05 mg/kg oral) and in series [4] (0.1 mg/kg oral) was less than 1 ng/mL each time. Also, the “differential susceptibility, aptamer-regulatable control line” value in series [5] is “did not reveal differential susceptibility”. For the same molecule, the “effect on hemoglobin-derived peptide levels” value with Pf3D7 trophozoites is “disruption and reduction”. In the series “Tolerability”, the “weight loss (humane end point reached before day 7)” value is on record as no less than 15%. Moreover, the “transmission-reducing activity (TRA), reduction in mean oocyst formation” value in series [8] turned out to be 54%. The “differential susceptibility on PI3K knockdown” value in [9] is listed as “did not reveal differential susceptibility”. In series [11], the inhibition at 5 µM came out at 30%. In series [12], the “differential susceptibility on PKG knockdown” value is on record as “did not reveal differential susceptibility”.

The values are drawn from paper PMC9951552 (Science translational medicine, 2022).
